Measurements: patent US20240091310A1, “COMPOSITIONS AND METHODS USEFUL FOR THE PREVENTION AND/OR TREATMENT OF DISEASE IN MAMMALS” (VIRO-GEN (PTY) LTD, priority 2020, published 2024)

Legend:
HIV-1 [1] = test: Follow-up HIV PCR and CD4 count after transdermal DMF study; assay type: in vivo, human
Excerpt: Individuals, the study of whom generated the teachings of ZA 1998/064649, despite being infected with HIV have maintained a CD4^+ T-cell count above 350 for more than 20 years without being on antiretroviral treatment. These individuals are referred to herein as Long-term Non-Progressors (“LTNP”).
One such individual, had initially presented with HIV PCR detecting 63.298 HIV-1 RNA copies/ml of plasma in December 1996.

[2] = Transdermal absorption of liquid DMF; assay type: in vivo, human; conditions: two patches of diameter 9 cm, total skin surface area 127 cm^2
Description: For transdermal administration of a polar compound, the rate of absorption is determined by the skin of the subject.
Accordingly, the desired rate of absorption may be achieved by controlling the surface area of the skin exposed to the drug, as by determining the area of each patch and the number of patches applied to the skin.

HIV-1 [3] = conditions: transdermal patch containing DMF; cited from earlier work
HIV = conditions: as previously disclosed; cited from earlier work

Compound: CN(C)C=O [DMF, N,N-dimethylformamide]
- HIV-1 RNA copies/ml of plasma by HIV PCR (HIV-1 [1]; one LTNP individual, follow-up March 2006 after transdermal DMF study, initially 63.298 copies/ml in December 1996): < 40 copies/ml
- CD4 Count (HIV-1 [1]; same individual, follow-up 2011): 920 µL⁻¹
- HIV-1 RNA copies/ml of plasma by HIV PCR (HIV-1 [1]; same individual, further follow-up 2011): No
- absorption rate [2]: about 1.2 g of DMF per hour
- outcome of treatment of patients infected with HIV-1 (HIV-1 [3]): promising results
- inhibition of HIV production (HIV): powerful inhibitors of HIV production

Compound: C[S+](C)[O-] [DMSO, Diemthylsulfoxide]
- inhibition of HIV production (HIV): powerful inhibitors of HIV production
